Laboratory results published in US4221805A, “Method of inducing platelet antiaggregation activity” (priority 1978, dated 1980).
Entries after “also recorded” stand apart in the source; their conditions may differ.

What was measured:
[1] = Acute toxicity in mice, oral administration (LD50); format: in vivo; conditions: mouse, in vivo
Procedure: (§1) A total of 240 albino mice, 120 male and 120 female, of the Swiss strain and having an average weight of about 20 grams were used. The animals were divided into groups of 10 animals each, and kept caged for some days in an environment at a constant temperature (21°±1° C.) and humidity (60±5%). They were then fasted for 24 hours before the experiment, but were given free access to water.
(§2) The substance indicated by MRAP2 was administered, in a single administration, either orally or endoperitoneally. The LD50 was evaluated for each of the administration methods, using the method of Litchfield and Wilcoxon, J.Pharmacology, 96, 99, […], based on the mortality recorded for each group of mice over the seven days following administration.
(§3) Six groups of 20 animals, 10 male and 10 female, which had been given MRAP2 dissolved in tap water were used, the method utilised being gastric catheterisation.

mice = test: Acute toxicity in mice, oral administration (LD50); format: in vivo; conditions: 20 animals per dose
Procedure: as §1, §2, §3

[2] = Acute toxicity in rats, oral administration (LD50); format: in vivo; conditions: rat, in vivo
Procedure: (§4) 200 albino rats, 100 male and 100 female, of the Wistar strain and weighing 130-150 grams were divided into groups of 10 animals each.
(§5) After being caged for some days at constant temperature (21°±1° C.) and humidity (60±5%), the animals were fasted for 24 hours before treatment.
(§6) The MRAP2 was administered in a single administration either orally or endoperitoneally, following the method heretofore described.
(§7) Teh LD50 was evaluated for each method of administration using the Litchfield and Wilcoxon method, based on the percentage mortality recorded in each group of rats during the seven days following treatment.
(§8) Five groups of 20 animals, 10 male and 10 female were used.

rats [3] = test: Acute toxicity in rats, oral administration (LD50); format: in vivo; conditions: 20 animals per dose
Procedure: as §4, §5, §6, §7, §8

[4] = Acute toxicity in rats, endoperitoneal administration (LD50); format: in vivo; conditions: rat, in vivo, ip
Procedure: as §4, §5, §6, §7, §8

rats [5] = test: as above; format: in vivo; conditions: 20 animals per dose
Procedure: as §4, §5, §6, §7, §8

[6] = tested on: human PRP (Platelet Rich Plasma), platelet aggregation induced by ADP; test: In vitro platelet antiaggregation activity (Born method, ADP-induced); format: cell-based
Procedure: The method described by Born (Nature, 194, 927, 1962) was followed for this test, based on the increase in the platelet aggregation induced by ADP. The experiment was conducted using a human PRP (Platelet Rich Plasma) pool from four healthy volunteers who had not taken any drugs for ten days. The PRP was adjusted to 280,000±20,000 and kept at ambient temperature for the entire duration of the test.
400 μl of PRP and 100 μl of MRAP2 dissolved in a physiological solution and adjusted to a pH of 7.4 were placed in plastic test tubes. Three doses of the drug in question (0.181, 0.904 and 1.818 mg/ml) were used.
Three dilutions of aspirin were prepared under the same conditions for use as a comparison drug. Two minutes after contact between the drug and PRP, the test tube was inserted into the aggregometer cell (EEI, Model 169 with Corning Recorder Mod.840). After 60 seconds, ADP (10^-3 mM) was added and the aggregation was recorded. In calculating the antiaggregation activity, reference was made to the maximum amplitude of the aggregation curved obtained with ADP. Assuming this amplitude to be 100, the amplitudes of the curves obtained with the various doses of MRAP2 and aspirin were calculated as a percentage.

platelet aggregation = test: In vivo platelet antiaggregation activity; design: species or system male rats, Wistar strain; conditions: rats
Procedure: This experiment was carried out on male rats of the Wistar strain having a weight of 320±20 grams. Both the MRAP2 and the aspirin (used as a comparison drug) were dissolved in a physiological solution, and the solutions, adjusted to pH 7.4, were administered orally in doeses of 3 mg/kg to two groups of three rats each. […] The concentration of the solution was adjusted to contain 100 mg of MRAP2 per ml. Blood samples were drawn from each animal 72 and 120 hours after treatment, for checking the platelet aggregation. In calculating the activity, the previous method was used (the average of the three maximum amplitudes of the curves obtained with the untreated rats was given the control figure of 100%).

Cl.Clc1ccccc1CN1CCCC1 [MRAP2, N-(2-chlorobenzyl)-pyrrolidine hydrochloride]
mortality at 168 h ([1]; 300 mg/kg): 0%
mortality at 168 h ([1]; 400 mg/kg): 20%
mortality at 168 h ([1]; 500 mg/kg): 45%
mortality at 168 h ([1]; 600 mg/kg): 60%
mortality at 168 h ([1]; 800 mg/kg): 100%
mortality at 168 h ([1]; 1000 mg/kg): 100%
LD50 at 168 h ([1]; single administration, 7 days, 95% limits 515-561): 536 mg/kg
No. of animals dead (mice; 300 mg/kg): 0
No. of animals dead (mice; 400 mg/kg): 4
No. of animals dead (mice; 500 mg/kg): 9
No. of animals dead (mice; 600 mg/kg): 12
No. of animals dead (mice; 800 mg/kg): 20
No. of animals dead (mice; 1000 mg/kg): 20
mortality at 168 h ([2]; 400 mg/kg): 0%
mortality at 168 h ([2]; 500 mg/kg): 20%
mortality at 168 h ([2]; 600 mg/kg): 40%
mortality at 168 h ([2]; 800 mg/kg): 75%
mortality at 168 h ([2]; 1000 mg/kg): 100%
LD50 at 168 h ([2]; single administration, 7 days, 95% limits 631-714): 675 mg/kg
No. of animals dead (rats [3]; 400 mg/kg): 0
No. of animals dead (rats [3]; 500 mg/kg): 4
No. of animals dead (rats [3]; 600 mg/kg): 8
No. of animals dead (rats [3]; 800 mg/kg): 15
No. of animals dead (rats [3]; 1000 mg/kg): 20
mortality at 168 h ([4]; 50 mg/kg): 0%
mortality at 168 h ([4]; 100 mg/kg): 5%
mortality at 168 h ([4]; 200 mg/kg): 55%
mortality at 168 h ([4]; 300 mg/kg): 85%
mortality at 168 h ([4]; 400 mg/kg): 100%
LD50 at 168 h ([4]; single administration, 7 days, 95% limits 174-203): 188 mg/kg
No. of animals dead (rats [5]; 50 mg/kg): 0
No. of animals dead (rats [5]; 100 mg/kg): 1
No. of animals dead (rats [5]; 200 mg/kg): 11
No. of animals dead (rats [5]; 300 mg/kg): 17
No. of animals dead (rats [5]; 400 mg/kg): 20
inhibition of platelet aggregation at 181 µg/mL ([6]; Platelet, ADP 10^-3 mM, drug 0.181 mg/ml): 26%
activity at 181 µg/mL ([6]; Platelet, ADP 10^-3 mM, drug 0.181 mg/ml, serum + ADP = 100): 74%
inhibition of platelet aggregation at 904 µg/mL ([6]; Platelet, ADP 10^-3 mM, drug 0.904 mg/ml): 91%
activity at 904 µg/mL ([6]; Platelet, ADP 10^-3 mM, drug 0.904 mg/ml, serum + ADP = 100): 9%
inhibition of platelet aggregation at 1818 µg/mL ([6]; Platelet, ADP 10^-3 mM, drug 1.818 mg/ml): 92%
activity at 1818 µg/mL ([6]; Platelet, ADP 10^-3 mM, drug 1.818 mg/ml, serum + ADP = 100): 8%
platelet antiaggregation activity (in words) ([6]; in vitro, ADP, manifested by the dose of 0.904 mg/ml, comparison with aspirin, hydrochloride): considerable platelet antiaggregation activity; also recorded: clearly superior to that possessed by aspirin
antiaggregation activity in vivo (in words) (platelet aggregation; oral 3 mg/kg, comparison with aspirin): superior to that of aspirin
% platelet antiaggregation activity on day 3 (platelet aggregation; single oral dose 3 mg/kg, day 3 (72 hours)): 38%
% platelet aggregation on day 3 (platelet aggregation; single oral dose 3 mg/kg, day 3 (72 hours), controls = 100): 62%
% platelet antiaggregation activity on day 5 (platelet aggregation; single oral dose 3 mg/kg, day 5 (120 hours)): 37%
% platelet aggregation on day 5 (platelet aggregation; single oral dose 3 mg/kg, day 5 (120 hours), controls = 100): 63%
